Measured values from PubChem BioAssay (NCI).
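Test compounds were applied to cells in 96-well plates for 48 hours at 5 doses. Abbreviation: GI50, concentration required for 50% inhibition of growth. The concentration for full growth arrest is given as TGI.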

What was measured:
Experiment in all cases: DTP human tumour cell line panel, 48 h
[1] = test system: SF-295 CNS
[2] = test system: UACC-257 melanoma
[3] = test system: NCI/ADR-RES ovarian
[4] = test system: A498 renal
[5] = test system: K-562 leukemia
[6] = test system: HOP-62 NSCLC
[7] = test system: HCC-2998 colon
[8] = test system: OVCAR-3 ovarian
[9] = test system: NCI-H460 lung
[10] = test system: A549 NSCLC
[11] = test system: SF-268 CNS
[12] = test system: OVCAR-8 ovarian
[13] = test system: MCF7 breast
[14] = test system: SR leukemia
[15] = test system: KM12 colon
[16] = test system: RPMI-8226 leukemia
[17] = test system: OVCAR-4 ovarian
[18] = test system: MOLT-4 leukemia
[19] = test system: SNB-75 CNS
[20] = test system: HCT-15 colon
[21] = test system: SK-OV-3 ovarian
[22] = test system: NCI-H522 lung
[23] = test system: OVCAR-5 ovarian
[24] = test system: UO-31 renal
[25] = test system: SK-MEL-2 melanoma
[26] = test system: HOP-92 NSCLC
[27] = test system: HS 578T breast
[28] = test system: LOX IMVI melanoma
[29] = test system: EKVX NSCLC
[30] = test system: PC-3 prostate
[31] = test system: SK-MEL-28 melanoma
[32] = test system: HCT-116 colon
[33] = test system: SNB-19 CNS
[34] = test system: SN12C renal
[35] = test system: COLO 205 colon
[36] = test system: UACC-62 melanoma
[37] = test system: M14 melanoma
[38] = test system: BT-549 breast
[39] = test system: T-47D breast
[40] = test system: HL-60(TB) leukemia
[41] = test system: SW-620 colon
[42] = test system: ACHN renal
[43] = test system: SK-MEL-5 melanoma
[44] = test system: 786-0 renal
[45] = test system: NCI-H226 lung
[46] = test system: MDA-MB-435
[47] = test system: SF-539 CNS
[48] = test system: CCRF-CEM leukemia
[49] = test system: IGROV1 ovarian
[50] = test system: CAKI-1 renal
[51] = test system: DU-145 prostate
[52] = test system: HT29 colon
[53] = test system: MDA-MB-231 breast
[54] = test system: RXF 393 renal
[55] = test system: U251 CNS
[56] = test system: TK-10 renal
[57] = test system: NCI-H23 lung

Compound `COc1ccc(C2SCC(=O)N2NC(=O)C(O)c2ccccc2)cc1` (configuration not stated) has a GI50 [1] greater than 100 µM, a TGI [1] greater than 100 µM and a GI50 [2] greater than 100 µM. It also gave a TGI [2] greater than 100 µM, a GI50 [3] greater than 100 µM and a TGI [3] greater than 100 µM. It also gave a GI50 [4] greater than 100 µM, a TGI [4] greater than 100 µM and a GI50 [5] of 55.5 µM. The TGI [5] was greater than 100 µM, the GI50 [6] was greater than 100 µM and the TGI [6] was greater than 100 µM. It also gave a GI50 [7] greater than 100 µM, a TGI [7] greater than 100 µM and a GI50 [8] greater than 100 µM. The TGI [8] was greater than 100 µM, the GI50 [9] was greater than 100 µM and the TGI [9] was greater than 100 µM. It also gave a GI50 [10] greater than 100 µM, a TGI [10] greater than 100 µM and a GI50 [11] greater than 100 µM. The TGI [11] was greater than 100 µM, the GI50 [12] was greater than 100 µM and the TGI [12] was greater than 100 µM. For the same compound, the GI50 [13] was greater than 100 µM, the TGI [13] was greater than 100 µM and the GI50 [14] was greater than 100 µM. It also gave a TGI [14] greater than 100 µM, a GI50 [15] greater than 100 µM and a TGI [15] greater than 100 µM. It also gave a GI50 [16] of 61.3 µM, a TGI [16] greater than 100 µM and a GI50 [17] greater than 100 µM. It also gave a TGI [17] greater than 100 µM, a GI50 [18] greater than 100 µM and a TGI [18] greater than 100 µM. The GI50 [19] was 80.9 µM, the TGI [19] was greater than 100 µM and the GI50 [20] was greater than 100 µM. For the same compound, the TGI [20] was greater than 100 µM, the GI50 [21] was greater than 100 µM and the TGI [21] was greater than 100 µM. It also gave a GI50 [22] greater than 100 µM, a TGI [22] greater than 100 µM and a GI50 [23] greater than 100 µM. It also gave a TGI [23] greater than 100 µM, a GI50 [24] greater than 100 µM and a TGI [24] greater than 100 µM. For the same compound, the GI50 [25] was greater than 100 µM, the TGI [25] was greater than 100 µM and the GI50 [26] was greater than 100 µM. For the same compound, the TGI [26] was greater than 100 µM, the GI50 [27] was greater than 100 µM and the TGI [27] was greater than 100 µM. It also gave a GI50 [28] greater than 100 µM, a TGI [28] greater than 100 µM and a GI50 [29] greater than 100 µM. For the same compound, the TGI [29] was greater than 100 µM, the GI50 [30] was greater than 100 µM and the TGI [30] was greater than 100 µM. The GI50 [31] was greater than 100 µM, the TGI [31] was greater than 100 µM and the GI50 [32] was greater than 100 µM. For the same compound, the TGI [32] was greater than 100 µM, the GI50 [33] was greater than 100 µM and the TGI [33] was greater than 100 µM. For the same compound, the GI50 [34] was greater than 100 µM, the TGI [34] was greater than 100 µM and the GI50 [35] was greater than 100 µM. The TGI [35] was greater than 100 µM, the GI50 [36] was greater than 100 µM and the TGI [36] was greater than 100 µM. It also gave a GI50 [37] greater than 100 µM, a TGI [37] greater than 100 µM and a GI50 [38] greater than 100 µM. The TGI [38] was greater than 100 µM, the GI50 [39] was greater than 100 µM and the TGI [39] was greater than 100 µM. It also gave a GI50 [40] greater than 100 µM, a TGI [40] greater than 100 µM and a GI50 [41] greater than 100 µM. The TGI [41] was greater than 100 µM, the GI50 [42] was greater than 100 µM and the TGI [42] was greater than 100 µM. It also gave a GI50 [43] greater than 100 µM, a TGI [43] greater than 100 µM and a GI50 [44] greater than 100 µM. For the same compound, the TGI [44] was greater than 100 µM, the GI50 [45] was greater than 100 µM and the TGI [45] was greater than 100 µM. For the same compound, the GI50 [46] was greater than 100 µM, the TGI [46] was greater than 100 µM and the GI50 [47] was greater than 100 µM. The TGI [47] was greater than 100 µM, the GI50 [48] was greater than 100 µM and the TGI [48] was greater than 100 µM. It also gave a GI50 [49] greater than 100 µM, a TGI [49] greater than 100 µM and a GI50 [50] greater than 100 µM. For the same compound, the TGI [50] was greater than 100 µM, the GI50 [51] was greater than 100 µM and the TGI [51] was greater than 100 µM. It also gave a GI50 [52] greater than 100 µM, a TGI [52] greater than 100 µM and a GI50 [53] greater than 100 µM. For the same compound, the TGI [53] was greater than 100 µM, the GI50 [54] was greater than 100 µM and the TGI [54] was greater than 100 µM. It also gave a GI50 [55] greater than 100 µM, a TGI [55] greater than 100 µM and a GI50 [56] greater than 100 µM. For the same compound, the TGI [56] was greater than 100 µM.
Work on `COc1ccc2c(c1)C1c3ccccc3CCN1CCC2` (configuration not stated) yielded a TGI [1] of 54 µM, a TGI [2] greater than 100 µM and a TGI [57] greater than 100 µM. For the same compound, the TGI [3] was greater than 100 µM, the TGI [4] was greater than 100 µM and the TGI [5] was greater than 100 µM. For the same compound, the TGI [6] was greater than 100 µM, the TGI [7] was 63.5 µM and the TGI [8] was greater than 100 µM. The TGI [10] was greater than 100 µM, the TGI [11] was greater than 100 µM and the TGI [12] was greater than 100 µM. The TGI [13] was greater than 100 µM, the TGI [14] was greater than 100 µM and the TGI [15] was greater than 100 µM. The TGI [16] was 96.8 µM, the TGI [17] was greater than 100 µM and the TGI [18] was greater than 100 µM. It also gave a TGI [19] of 64.2 µM, a TGI [20] greater than 100 µM and a TGI [21] greater than 100 µM. It also gave a TGI [22] of 98.1 µM, a TGI [23] greater than 100 µM and a TGI [24] greater than 100 µM. It also gave a TGI [25] of 70.8 µM, a TGI [26] greater than 100 µM and a TGI [27] greater than 100 µM. For the same compound, the TGI [28] was greater than 100 µM, the TGI [29] was greater than 100 µM and the TGI [30] was greater than 100 µM. For the same compound, the TGI [31] was greater than 100 µM, the TGI [32] was greater than 100 µM and the TGI [33] was greater than 100 µM. The TGI [34] was greater than 100 µM, the TGI [35] was greater than 100 µM and the TGI [36] was greater than 100 µM. It also gave a TGI [37] greater than 100 µM, a TGI [38] of 68.2 µM and a TGI [39] greater than 100 µM. For the same compound, the TGI [41] was greater than 100 µM, the TGI [42] was greater than 100 µM and the TGI [43] was greater than 100 µM. It also gave a TGI [44] greater than 100 µM, a TGI [45] greater than 100 µM and a TGI [46] of 51.1 µM. For the same compound, the TGI [47] was greater than 100 µM, the TGI [48] was greater than 100 µM and the TGI [49] was greater than 100 µM. It also gave a TGI [50] greater than 100 µM, a TGI [51] greater than 100 µM and a TGI [52] greater than 100 µM. It also gave a TGI [53] of 84.7 µM, a TGI [54] greater than 100 µM and a TGI [55] greater than 100 µM. It also gave a TGI [56] greater than 100 µM.
